The values that follow come from US20030087831A1, “1,3,4-Oxadiazolin-2-one derivatives and drugs containing these derivatives as the active ingredient” (priority 1999, published 2003).

The target in assay [1] is T1, Human Neutrophil Elastase (HNE) (Homo sapiens, UniProt P08246).
T1 sequence (P08246 30-267): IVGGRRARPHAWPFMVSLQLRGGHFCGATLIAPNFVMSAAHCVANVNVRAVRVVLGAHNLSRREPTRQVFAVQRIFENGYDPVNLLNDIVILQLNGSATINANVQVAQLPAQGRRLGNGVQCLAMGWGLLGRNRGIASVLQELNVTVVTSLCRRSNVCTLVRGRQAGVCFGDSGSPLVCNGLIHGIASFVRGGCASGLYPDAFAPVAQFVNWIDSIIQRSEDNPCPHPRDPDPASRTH
Put plainly: Inhibitory effects on human neutrophil elastase (HNE). It counts as biochemical. As to conditions: Dixon plot; substrate MeO-Suc-Ala-Ala-Pro-Val-p-nitroanilide; 0.1 M HEPES buffer pH 8.0; 37° C. As to the method:
(1) Inhibitory Effects on Human Neutrophil Elastase (HNE)
Various concentrations of test compounds or DMSO as a vehicle were added to 0.1 M HEPES buffer (pH 8.0) containing the synthetic substrate MeO-Suc-Ala-Ala-Pro-Val-p-nitroanilide (final concentration, 0.1, 0.2 or 0.4 mM), 0.5 M sodium chloride solution and 0.1% Polyethyleneglycol 6000 in a final volume of 180 μL. This mixture was pre-incubated at 37° C. for 5 minutes. Then, the reaction was started by the addition of 20 μL of each enzyme solution (final concentration, 0.2U/mL). The hydrolysis rate of substrate (mO.D./minute) was measured by continuously monitoring absorbance at 405 nm for 10 minutes at 30 seconds intervals. The Ki values were determined by Dixon plot.

In assay [2] the test system is HNE-Induced Lung Hemorrhage. Put plainly: Inhibitory effect on HNE-induced lung hemorrhage in hamsters. As to conditions: Mesocricetus auratus, po, 1 h; administered orally one hour before intratracheal HNE (10 U/100 μL/lung); blood volume in BALF. The class given is in vivo, male Syrian hamsters. As to the method:
(2) Inhibitory Effect on HNE-Induced Lung Hemorrhage in Hamsters Test compound or vehicle solution (Polyethyleneglycol 400:ethanol:distilled water=51:16:33) was administered orally to male Syrian hamsters. One hour after administration, animals were anesthetized with sodium pentobarbital (60 mg/kg, i.p.) and their tracheae were exposed. Saline (100 μL/lung) or HNE (10 U/100 μL/lung) were instilled intratracheally. One hour after the instillation of HNE, animals were exsanguinated by cutting the abdominal aorta. The trachea was re-exposed and cannulated, then bronchoalveolar lavage fluid (BALF) was collected by infusing and withdrawing of saline (2.5 mL/animal). Erythrocytes in 0.2 mL of BALF sample were hemolyzed by adding 1.8 mL of distilled water. The lysate was centrifuged (3000 r.p.m., 4° C., 10 minutes), and absorbance of the supernatant at 412 nm was measured spectrophotometrically to calculate blood volume in BALF using a standard curve.

Broadly, the Ki is a dissociation constant, usually derived from enzyme kinetics or from competition with a known ligand. Read a high Ki as a looser hold on the target. On to `COC(=O)N[C@H](C(=O)N1CCC[C@H]1C(=O)N[C@H](C(=O)c1nn(Cc2ccsc2)c(=O)o1)C(C)C)C(C)C` [Example 1, (methoxycarbonyl)-L-valyl-N-[(1S)-([3-(thiophen-3-ylmethyl)-1,3,4-oxadiazolin-2-one-5-yl]carbonyl)-2-methylpropyl]-L-prolinamide], for which the Ki in assay [1] came out at 4.27 nM. Broadly, the ED50 is the midpoint of the dose-response relation. A low value points to an effect at a small dose. `COC(=O)N[C@H](C(=O)N1CCC[C@H]1C(=O)N[C@H](C(=O)c1nn(-c2ccccc2)c(=O)o1)C(C)C)C(C)C` [Example 2, (methoxycarbonyl)-L-valyl-N-[(1S)-([3-phenyl-1,3,4-oxadiazolin-2-one-5-yl]carbonyl)-2-methylpropyl]-L-prolinamide] gave an ED50 in assay [2] of 18.6 mg/kg. Affinity in assay [1] was put at a Ki of 3.41 nM.
